{"source": "paper PMC11874779", "about": "(Drug Design, Development and Therapy, 2025)", "system": "Baf3-EGFR^19del/T790M/C797S", "experiment": "Xenograft tumor model", "assay_type": "in vivo, BALB/c nude mice", "details": "100 mg/kg ig daily, 9 days, from tumor weight", "data": [{"smiles": "C=CC(=O)Nc1cc(Nc2nccc(-c3cn(C)c4ccccc34)n2)c(OC)cc1N(C)CCN(C)C", "note": "[Osimertinib]", "values": [{"measurement": "Tumor Growth Inhibition value (TGI)", "result": 13.5, "unit": "%"}]}]}
